Data: ChEMBL document CHEMBL1139143, “Synthesis and structure-activity relationships of N-substituted spiropiperidines as nociceptin receptor ligands” (Bioorg Med Chem Lett, 2007)

Key:
Format in all cases: ADME, organism-based
[1] = Cmax in rat after 4 hrs; conditions: in vivo
[2] = AUC (0 to 6 hrs) in rat; parameters: time < 6 hr; conditions: plasma
[3] = Drug level in rat after 6 hrs; conditions: in vivo, read-out: Drug uptake

Structure (SMILES): CC1(C)CCC(N2CCC3(CC2)C(=O)NCN3c2ccccc2)c2cc(Cl)c(Cl)cc21 (stereo not drawn)
- Cmax [1]: 518 nM
- AUC(0-t) at 6 h [2]: 2.11 µM·h
- concentration at 6 h [3]: 467 nM
